# Data from PubChem BioAssay AID844 (SRMLSC, 2007).
# Activity calls are given as the source filed them. The rule behind the calls is not given here.
# System: MRP1 cells, doxorubicin viability shift, 10 uM compound
# Assay: viability protection against doxorubicin, MRP-1 line – cell-based, doxorubicin EC50 shift, dose response (AID 844)
# Conditions: for EC50: measured here: doxorubicin EC50 with compound
SMILES,fold increase in Dox EC50,EC50
COc1ccc(N2Cc3cccc(C(=O)NC(C)CCc4ccco4)c3C2=O)cc1 (stereo not given),0.37 (inactive),2.02 µM
CCCOc1ccc(CSc2ncn[nH]2)cc1,0.89 (inactive),4.79 µM
Cc1ccc(N=Nc2c(N)[nH]n3c(=O)cc(-c4ccccc4)nc23)cc1,0.08 (inactive),0.452 µM
Cc1ccc(C(=O)NC(C)c2ccc(F)cc2)cc1 (stereo not given),0.68 (inactive),3.68 µM
COc1ccc(C2CC(c3ccc(Cl)cc3Cl)Nc3nc(N)nn32)cc1OC (stereo not given),1.05 (inactive),5.68 µM
O=C(NCCc1ccccc1)C(=O)c1c(-c2ccccc2)cc2ccccn12,1.08 (inactive),5.84 µM
Cn1nc(C(F)(F)F)c2cc(NC(=O)OCc3ccc(C(C)(C)C)cc3)sc21,0.74 (inactive),4.02 µM
c1ccc(OCCSc2nc3ccccc3[nH]2)cc1,1.03 (inactive),5.54 µM
O=C(NNC(=O)c1cccnc1)Nc1cccc2ccccc12,0.66 (inactive),3.57 µM
Cc1ccc(Nc2nc(CSc3nnnn3C)cs2)cc1,1.18 (inactive),6.36 µM
CCCCCCCOc1ccc(-c2ccc(C#N)cn2)cc1,0.67 (inactive),3.63 µM
CCc1c(C)sc(NC(=O)c2cccs2)c1C(=O)OC(C)C,0.42 (inactive),2.26 µM
Cc1cc(C)n2nc(C(=O)Nc3nnc(C4CC4)s3)nc2n1,0.87 (inactive),4.7 µM
Cc1nnc(NC(=O)C(C)Sc2nncn2C)s1 (stereo not given),0.77 (inactive),4.15 µM
CCCOc1ccc(C(=O)Nc2ccc(N3CCN(C(C)=O)CC3)cc2)cc1,1.06 (inactive),5.75 µM
Cc1ccc2[nH]c(=O)c(C(c3nnnn3C3CCCC3)N3CCCc4ccccc43)cc2c1 (stereo not given),1 (inactive),5.41 µM
Cc1ccc(/C=C2\SC(=S)N(CCCC(=O)Nc3ccccn3)C2=O)cc1,0.82 (inactive),4.44 µM
COc1ccc(Cc2nnc(NC(=O)c3c(-c4ccccc4)noc3C)s2)cc1OC,0.52 (inactive),2.79 µM
CCSc1nnc(-c2ccc(C)cc2)c2ccccc12,0.61 (inactive),3.3 µM
CN(CC(=O)NCCc1ccc(Cl)cc1)S(=O)(=O)c1ccc2c(c1)c(=O)n(C)c(=O)n2C,0.54 (inactive),2.93 µM
Cc1ccc2nc3c(cc2c1)CC1(C(=O)N(C)C(=O)N(C)C1=O)C1CCCCN31 (stereo not given),0.59 (inactive),3.21 µM
COc1ccc(N2C(=O)CC(N3CCC(O)(c4cccc(C(F)(F)F)c4)CC3)C2=O)cc1 (stereo not given),0.89 (inactive),4.82 µM
CN1/C(=C\C(=O)c2oc3ccccc3c2N)C(C)(C)c2ccccc21,0.7 (inactive),3.77 µM
CCCNC(=O)c1oc2ccc3c(c2c1C)C(=O)CC(C)(C)O3,0.84 (inactive),4.55 µM
Cc1cc(C)nc(NN2C(=O)/C(=C/c3ccc(O)cc3)SC2=S)n1,1.39 (inactive),7.51 µM

SMILES,fold increase in Dox EC50,EC50
Cc1ccc(CN2C(=O)NC(=O)C3(Cc4c(nc5ccccn5c4=O)N4CCCCCC43)C2=O)cc1 (stereo not given),1.02 (inactive),5.51 µM
Oc1c(C(c2ccccc2)N2CCc3ccccc3C2)sc2ncnn12 (stereo not given),0.45 (inactive),2.42 µM
Cn1cc(Br)c(C(=O)NNC(=O)c2ccc(Cl)cc2)n1,1.23 (inactive),6.63 µM
C=CCNc1oc(COc2ccc(C)cc2)nc1C#N,0.66 (inactive),3.59 µM
N#Cc1c(-c2ccccc2)nc(SCC(=O)Nc2ccccc2F)[nH]c1=O,1.79,9.66 µM
CN(C)S(=O)(=O)c1ccc(S(=O)(=O)N2CCN(CCC#N)CC2)cc1,0.71 (inactive),3.85 µM
O=C(CSc1nnc(-c2ccccc2)n1-c1ccc(Cl)cc1)N/N=C/c1ccco1,0.53 (inactive),2.84 µM
COc1ccc(NC(=O)CCCC2CCCCC2)cc1S(=O)(=O)N1CCCCC1,1.68,9.05 µM
Cc1ccc(Cl)cc1N1CCN(C(=O)c2cc3c(=O)n(C)c4ccccc4c3n2C)CC1,0.19 (inactive),1 µM
N=C(N)SCc1ccccc1Cl,0.42 (inactive),2.25 µM
Cc1cc(NC(=O)CN2C(=O)S/C(=C\c3ccccc3)C2=O)no1,1.03 (inactive),5.58 µM
Cc1cccc(-n2c(SCC(=O)Nc3ncc(Cl)cc3Cl)nc3ccccc32)c1,0.81 (inactive),4.37 µM
C=C(Cl)COc1ccc2c(CCCC)cc(=O)oc2c1,0.81 (inactive),4.35 µM
CCOc1cc(/C=C2\SC(=Nc3ccccc3)N(c3ccccc3)C2=O)ccc1OCC(=O)O,0.94 (inactive),5.09 µM
O=C(O)c1cccc(N2C(=O)C3CC=C(Cl)CC3C2=O)c1 (stereo not given),1.48 (inactive),7.97 µM
COc1cccc(C2CC(c3ccc(Cl)cc3Cl)n3nc(N)nc3N2)c1 (stereo not given),1.03 (inactive),5.56 µM
Cc1c(N2C(=O)/C(=C/c3ccccc3)SC2=S)c(=O)n(-c2ccccc2)n1C,0.58 (inactive),3.15 µM
COc1cc(/C=N/NC(=O)C23CC4CC(CC(C4)C2)C3)cc(Br)c1O,0.66 (inactive),3.54 µM
COc1ccc(-n2c(C)nc(=O)c(-c3ccccc3)c2C)cc1,0.83 (inactive),4.47 µM
Cc1ccc(C(c2nnnn2CS(=O)(=O)c2ccc(C)cc2)N2CCN(c3ncccn3)CC2)cc1 (stereo not given),0.48 (inactive),2.58 µM
CCOc1ccc(OCC)c(-c2c(=O)n(OCc3ccc(Cl)cc3)c3ccccc3[n+]2[O-])c1,0.53 (inactive),2.86 µM
O=C(NCCN1C(=O)S/C(=C/c2ccccc2)C1=O)C1CCCN1C(=O)c1cccs1 (stereo not given),0.61 (inactive),3.3 µM
Cc1ccc(NC(=O)CCC(=O)N/N=C/c2cccs2)cc1C,0.97 (inactive),5.23 µM
COc1ccc(NC(=O)COC(=O)c2c3c(nc4ccccc24)CCCC3)cc1Cl,0.68 (inactive),3.65 µM
CC(CCc1ccccc1)NC(=O)CN1CCN(Cc2ccc(Cl)cc2)C1=O (stereo not given),1.03 (inactive),5.58 µM

SMILES,fold increase in Dox EC50,EC50
Cc1cc(C)cc(-c2nc(-c3ccncc3)no2)c1,0.77 (inactive),4.13 µM
CCc1ccc(-c2nc(-c3ccncc3)no2)cc1,0.89 (inactive),4.82 µM
CCC(=O)c1ccc(N2CCOCC2)c(F)c1,1.32 (inactive),7.12 µM
CC(=O)c1ccc(NC(=O)CN2C(=O)/C(=C/C(C)=C/c3ccccc3)SC2=S)cc1,0.62 (inactive),3.36 µM
O=C(NCc1ccc(Cl)cc1)C(=O)NCC(c1ccco1)N1CCOCC1 (stereo not given),1.25 (inactive),6.77 µM
CCc1nnc(NC(=O)C(C)N2C(=O)C3C4C=CC(C4)C3C2=O)s1 (stereo not given),1.01 (inactive),5.44 µM
CCOc1ccc(C2CC(c3ccc(F)cc3)Nc3nc(N)nn32)cc1 (stereo not given),0.55 (inactive),2.95 µM
COc1cccc(-c2csc(NC(=O)Oc3ccccc3)n2)c1,1.52,8.23 µM
CCc1nnc(NC(=O)CCC(=O)N2CCN(CCOc3ccc(C)cc3)CC2)s1,1.24 (inactive),6.7 µM
CC1=NN(C(=O)c2ccc(Cn3nc(C)c(Br)c3C)cc2)C(O)(C(F)(F)F)C1 (stereo not given),1.15 (inactive),6.18 µM
CC(=O)/C(C#N)=C1\NC(=O)C(Cc2ccc(C)c(C)c2)S1 (stereo not given),1.19 (inactive),6.44 µM
CC(=O)c1ccc(N2CCN(c3ccc(C(F)(F)F)cn3)CC2)cc1,0.56 (inactive),3 µM
O=c1c(-c2nnc(SCc3ccc(Cl)cc3)o2)cccn1Cc1ccccc1,0.63 (inactive),3.4 µM
COc1ccc(OCc2nc(C#N)c(N3CCN(c4ccc(OC)cc4)CC3)o2)cc1,0.76 (inactive),4.08 µM
COc1ccc(C2C(C(=O)OCC(=O)NC(C)(C)C)CCC(=O)N2c2ccc(C)cc2)cc1OC (stereo not given),0.81 (inactive),4.36 µM
CC(C)c1ccc(CNc2cc(N3CCCC3)ccc2[N+](=O)[O-])cc1,0.81 (inactive),4.36 µM
CCCC1S/C(=N/N=C/c2ccc(OC)cc2)N(Cc2ccccc2)C1=O (stereo not given),1 (inactive),5.39 µM
Cc1noc(/C=C/N(C)C)c1S(=O)(=O)N1CCCC(C(=O)NCc2ccc(F)cc2)C1 (stereo not given),1.15 (inactive),6.2 µM
Cc1nc(N2CCN(Cc3ccccc3)CC2)nc2c1C(=O)CC(c1ccco1)C2 (stereo not given),0.75 (inactive),4.04 µM
CCn1c(C)c(C)c2cc(C(=O)Nc3cccc(Cl)c3)ccc21,0.43 (inactive),2.33 µM
Cc1nnc(NC(=O)COc2ccccc2)s1,1.25 (inactive),6.73 µM
CC1(C)O[C@@H]2C[C@H]3[C@@H]4CCC5=CC(=O)C=C[C@]5(C)[C@@]4(F)[C@@H](O)C[C@]3(C)[C@]2(C(=O)CO)O1,0.62 (inactive),3.33 µM
COc1ccc(NC(=O)c2c(F)cccc2F)cc1S(=O)(=O)Nc1ccc(Br)cc1,0.71 (inactive),3.86 µM
COc1ccc(CN=C2NC(=O)CC(C(=O)Nc3ccccc3C)S2)cc1 (stereo not given),1.16 (inactive),6.24 µM
N#Cc1nc(COc2ccc(Br)cc2)oc1NCCN1CCOCC1,0.83 (inactive),4.5 µM
